In PubChem BioAssay AID328 (DTP/NCI, 2004) one finds T/C data, which are given here for 12 molecules.

Where “and” joins values, the source holds several entries; their conditions need not be identical. Equal entries are not always repeated. Inconclusive results and toxic doses are left out.

This assay concerns BDF1 mice, P388 leukemia ip, median survival T/C. Put plainly: NCI In Vivo Anticancer Drug Screen. Data for tumor model P388 Leukemia (intraperitoneal) in B6D2F1 (BDF1) mice. The note with it: endpoint: median survival time, higher = longer survival. The method in brief:
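Survival ratio, drug arm over vehicle arm, in mice with a transplanted tumour.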

The mark [1] stands for this setting: dose: 100.0 mg/kg/injection, schedule: Q01DX009 (ip), vehicle: saline with Tween-80.
[2] abbreviates: dose: 100.0 mg/kg/injection, schedule: Q04DX003 (ip), vehicle: saline with Tween-80.
The mark [3] stands for this setting: dose: 200.0 mg/kg/injection, schedule: Q04DX003 (ip), vehicle: saline with Tween-80.

On to `COc1cc(C=Nc2cc(Br)c(O)c(Br)c2)ccc1N(CCCl)CCCl`, for which the T/C was 163 % of control (dose: 3.5 mg/kg/injection, schedule: Q04DX003 (ip), vehicle: Klucel (hydroxypropylcellulose) (HPC)); 150 % of control (dose: 5.44 mg/kg/injection, schedule: Q04DX003 (ip), vehicle: Klucel (hydroxypropylcellulose) (HPC)); 186 % of control (dose: 6.2 mg/kg/injection, schedule: Q01DX009 (ip), vehicle: Klucel (hydroxypropylcellulose) (HPC)); 172 % of control (dose: 8.16 mg/kg/injection, schedule: Q04DX003 (ip), vehicle: Klucel (hydroxypropylcellulose) (HPC)); 227 % of control and 259 % of control (dose: 9.37 mg/kg/injection, schedule: Q01DX009 (ip), vehicle: Klucel (hydroxypropylcellulose) (HPC)); 272 % of control and 220 % of control (dose: 12.37 mg/kg/injection, schedule: Q04DX003 (ip), vehicle: Klucel (hydroxypropylcellulose) (HPC)). Besides, the T/C runs as follows: (dose: 14.0 mg/kg/injection, schedule: Q01DX009 (ip), vehicle: Klucel (hydroxypropylcellulose) (HPC)) 91 % of control; (dose: 18.75 mg/kg/injection, schedule: Q04DX003 (ip), vehicle: Klucel (hydroxypropylcellulose) (HPC)) 265 % of control and 268 % of control and 272 % of control; (dose: 28.12 mg/kg/injection, schedule: Q04DX003 (ip), vehicle: Klucel (hydroxypropylcellulose) (HPC)) 300 % of control; (dose: 37.5 mg/kg/injection, schedule: Q01DX009 (ip), vehicle: Klucel (hydroxypropylcellulose) (HPC)) 90 % of control; (dose: 37.5 mg/kg/injection, schedule: Q04DX003 (ip), vehicle: Klucel (hydroxypropylcellulose) (HPC)) 113 % of control.
Turning to `OC(C(c1ccccc1)N1CCCCC1)C(O)(c1ccccc1)c1ccccc1` (stereo unspecified), the T/C (dose: 100.0 mg/kg/injection, schedule: Q01DX001 (ip), vehicle: saline sonified) was 100 % of control; the T/C (dose: 200.0 mg/kg/injection, schedule: Q01DX001 (ip), vehicle: saline sonified) is 105 % of control; the T/C (dose: 400.0 mg/kg/injection, schedule: Q01DX001 (ip), vehicle: saline sonified) is 100 % of control.
For `O=C1CC(=Nc2ccccc2)N(c2ccccc2)N1`, the T/C runs as follows: (dose: 33.75 mg/kg/injection, schedule: Q01DX009 (ip), vehicle: saline with Tween-80) 109 % of control; (dose: 67.5 mg/kg/injection, schedule: Q01DX009 (ip), vehicle: saline with Tween-80) 91 % of control; (dose: 135.0 mg/kg/injection, schedule: Q01DX009 (ip), vehicle: saline with Tween-80) 89 % of control.
`C[C@]12[C@@H]3CC(=O)C[C@@]1(CC[C@@H]1[C@@H]2CC[C@]2(C)OC(=O)CC[C@@H]12)SS3`: the T/C under setting [1] is 100 % of control; the T/C under setting [2] was 104 % of control; the T/C (dose: 200.0 mg/kg/injection, schedule: Q01DX009 (ip), vehicle: saline with Tween-80) is 91 % of control; the T/C under setting [3] was 90 % of control; the T/C (dose: 400.0 mg/kg/injection, schedule: Q01DX009 (ip), vehicle: saline with Tween-80) is 95 % of control; the T/C (dose: 400.0 mg/kg/injection, schedule: Q04DX003 (ip), vehicle: saline with Tween-80) is 90 % of control.
In the case of `CCc1ccc(NC(=O)N(CCCl)N=O)cc1`, the T/C was 109 % of control (dose: 0.62 mg/kg/injection, schedule: Q04DX003 (ip), vehicle: Klucel (hydroxypropylcellulose) (HPC)); 158 % of control (dose: 0.8 mg/kg/injection, schedule: Q01DX009 (ip), vehicle: gum acacia); 154 % of control (dose: 1.3 mg/kg/injection, schedule: Q01DX009 (ip), vehicle: gum acacia); 153 % of control and 187 % of control (dose: 2.0 mg/kg/injection, schedule: Q01DX009 (ip), vehicle: gum acacia); 176 % of control (dose: 3.0 mg/kg/injection, schedule: Q01DX009 (ip), vehicle: gum acacia); 196 % of control (dose: 4.5 mg/kg/injection, schedule: Q01DX009 (ip), vehicle: gum acacia). Besides, the T/C was 177 % of control and 204 % of control (dose: 5.0 mg/kg/injection, schedule: Q04DX003 (ip), vehicle: Klucel (hydroxypropylcellulose) (HPC)); 230 % of control and 236 % of control (dose: 7.0 mg/kg/injection, schedule: Q01DX009 (ip), vehicle: gum acacia); 214 % of control (dose: 8.0 mg/kg/injection, schedule: Q04DX003 (ip), vehicle: Klucel (hydroxypropylcellulose) (HPC)); 250 % of control (dose: 11.0 mg/kg/injection, schedule: Q01DX009 (ip), vehicle: gum acacia); 238 % of control (dose: 12.0 mg/kg/injection, schedule: Q04DX003 (ip), vehicle: Klucel (hydroxypropylcellulose) (HPC)); 196 % of control (dose: 17.0 mg/kg/injection, schedule: Q01DX009 (ip), vehicle: gum acacia). For the same molecule, the T/C is, setting by setting: (dose: 18.0 mg/kg/injection, schedule: Q04DX003 (ip), vehicle: Klucel (hydroxypropylcellulose) (HPC)) 233 % of control and 285 % of control; (dose: 25.0 mg/kg/injection, schedule: Q01DX009 (ip), vehicle: gum acacia) 212 % of control; (dose: 25.0 mg/kg/injection, schedule: Q04DX003 (ip), vehicle: Klucel (hydroxypropylcellulose) (HPC)) 300 % of control; (dose: 37.0 mg/kg/injection, schedule: Q04DX003 (ip), vehicle: Klucel (hydroxypropylcellulose) (HPC)) 300 % of control.
On to `CCOC(=O)NC`, for which the T/C (dose: 100.0 mg/kg/injection, schedule: Q01DX009 (ip), vehicle: saline) is 104 % of control; the T/C (dose: 200.0 mg/kg/injection, schedule: Q01DX009 (ip), vehicle: saline) is 100 % of control; the T/C (dose: 400.0 mg/kg/injection, schedule: Q01DX009 (ip), vehicle: saline) is 112 % of control.
For `Cc1ccc(NC(=O)C2CCC(C)(C(=O)O)C2(C)C)cc1` (stereo unspecified), the T/C was 109 % of control (dose: 50.0 mg/kg/injection, schedule: Q04DX003 (ip), vehicle: saline with Tween-80); 90 % of control under setting [2]; 104 % of control under setting [3].
Consider `c1ccc(NNc2c3ccccc3nc3ccccc23)cc1`, for which the T/C by setting is: (dose: 50.0 mg/kg/injection, schedule: Q01DX009 (ip), vehicle: saline with Tween-80) 102 % of control; under setting [1], 102 % of control.
As for `CCN(CC)c1ccc(N)cc1`, the T/C (dose: 6.25 mg/kg/injection, schedule: Q04DX003 (ip), vehicle: other) was 100 % of control; the T/C (dose: 12.5 mg/kg/injection, schedule: Q01DX009 (ip), vehicle: other) was 100 % of control; the T/C (dose: 12.5 mg/kg/injection, schedule: Q04DX003 (ip), vehicle: other) was 115 % of control; the T/C (dose: 25.0 mg/kg/injection, schedule: Q01DX009 (ip), vehicle: other) is 120 % of control; the T/C (dose: 25.0 mg/kg/injection, schedule: Q04DX003 (ip), vehicle: other) is 110 % of control.
As for `NC(=O)NC1C(c2ccccc2)=NOC1C(N)=O` (stereo unspecified), the T/C (dose: 100.0 mg/kg/injection, schedule: Q01DX009 (ip), vehicle: Klucel (hydroxypropylcellulose) (HPC)) was 105 % of control and the T/C (dose: 200.0 mg/kg/injection, schedule: Q01DX009 (ip), vehicle: Klucel (hydroxypropylcellulose) (HPC)) is 100 % of control.
`c1ccc(OCC2c3ccccc3Nc3ccccc32)cc1`: the T/C by setting is: (dose: 100.0 mg/kg/injection, schedule: Q01DX001 (ip), vehicle: saline with Tween-80) 91 % of control; (dose: 200.0 mg/kg/injection, schedule: Q01DX001 (ip), vehicle: saline with Tween-80) 94 % of control; (dose: 400.0 mg/kg/injection, schedule: Q01DX001 (ip), vehicle: saline with Tween-80) 100 % of control.
Consider `COC1OCC(N=[N+]=[N-])C2OC12` (stereo unspecified), for which the T/C runs as follows: (dose: 25.0 mg/kg/injection, schedule: Q01DX009 (ip), vehicle: water) 96 % of control; (dose: 50.0 mg/kg/injection, schedule: Q01DX009 (ip), vehicle: water) 102 % of control; (dose: 100.0 mg/kg/injection, schedule: Q01DX009 (ip), vehicle: water) 119 % of control; (dose: 200.0 mg/kg/injection, schedule: Q01DX009 (ip), vehicle: water) 102 % of control.
